Patent publication US7001770B1, “Calpain inhibitors and their applications” (priority 1998, dated 2006)
Square brackets hold non-standard residues; d marks the D form. Peptide text beside a SMILES is read from it. Nle = CCCC[C@H](N)C(=O)O

Columns and labels:
Format in all cases: cell-based
[1] = test system: p53 and p21 protein levels in HLF cells; test: Western blot of p53 and p21 levels; details: 17 hours
Method: (§1) FIG. 5 contains the results of Western blots measuring the levels of p53 and p21 in rAd-p53 infected cells in the presence of varying concentrations of CI-1. Above each lane is a “+” of “−” which indicates if the cells were pulsed with 1×10^9 rAd-p53 for one hour (+) or not (−). The row of numbers below indicates the μM concentration of CI-1 to which the cells were exposed at 17 hours post-infection. The upper row of chemiluminescent signals provides the levels of p53 while the lower row of chemiluminescent signals provides the levels of p21. […] When 5 μM CI-1 was added with rAd-p53, the levels of p53 increased two fold, as quantitated on NIH imaging.
(§2) At 17 hours post treatment, cells were lysed in protein lysis buffer (50 mM tris, 250 mM NaCl, 50 mM NaF, 5 mM EDTA and 0.1% NP-40 with 1 mM PMSF). Cell lysates were subjected to electrophoresis. 10 μg of protein was added per lane on a 12% polyacrylamide gel and transfered onto nitrocellulose membranes. The membranes were subjected to western blot analysis using antibodies specific for p53 or p21 (Calbiochem, p53 antibody Ab-6, and p21 antibody Ab-7). HRP-conjugated secondary antibody (Amersham) was added for one hour at which time the blots were washed. Blots were developed using enhanced chemiluminescence detection system (Amersham) and quantitated using NIH imaging analysis.

[2] = test system: p53 and p21 protein levels in RKO cells; test: Western blot of p53 and p21 levels; details: 17 hours
Method: as §1, §2

HLF cells = test: Infectivity: copies of rAd-p53 DNA by PCR
Method: The effects of the use of calpain inhibitors, particularly CI-1, were investigated in their ability to increase the infectivity of the HLF tumor cell line to rAd-p53. HLF cell lines were prepared in substantial accordance with the teaching of example 6 herein. The cells were exposed to two concentrations of rAd-p53 in the presence and absence of 10 μM CI-1. The total number of copies of rAd-p53 DNA were determined by PCR as described in Example 6. The results of these experiments are presented in Table 4 below and in graphical form in FIG. 7 of the attached drawings.
A similar experiment was conducted to determine the effect of pre-treatment of the cells with the calpain inhibitor. The cell lines were prepared as indicated above. In this experiment, one group of cells was pretreated with a 10 μM concentration of CI-1 for a period of 6 hours prior to exposure to the Ad-p53. The control sample was not pretreated. The results of these experiments are presented in Table 5 below and in graphical form in FIG. 7 of the attached drawings.
The following materials were obtained from Perkin Elmer Corporation under Part No. N808-0028: Gene Amp 10× Taqman Buffer A, 25 mM MgCl2, 5 μM Oligonucleotide Primer “A”, 5 μM Oligonucleotide Primer “B”, 5 units/mL AmpliTaq® Gold DNA Polymerase, 10 μM Taqman Probe. Deoxynucleotide Triphosphates, dATP, dCTP, and dGTP are 10 mM. dUTP is 20 mM. […]

Structure (SMILES): CCCC[C@@H](C=O)NC(=O)[C@H](CC(C)C)NC(=O)[C@H](CC(C)C)NC(C)=O [CI-1, N-acetyl-leu-leu-norleucinal] (Ac-Leu-Leu-[Nle]-aldehyde)
- increase in levels of p53 (NIH imaging) ([1]; 5 μM CI-1 added with 1×10^9 rAd-p53, versus rAd-p53 alone): two fold
- increase in levels of p53 and p21 ([1]; 10 μM CI-1 added with 1×10^9 rAd-p53): approximately three fold
- increase in p53 and p21 levels ([2]; 5 μM CI-1 with 1×10^9 rAd-p53): two fold increase
- increase in p53 levels over rAd-p53 alone ([2]; 10 μM CI-1 with 1×10^9 rAd-p53): about a five fold increase
- increase in intracellular viral DNA (HLF cells; 10 μM CI-1, no pre-treatment, viral concentration 1×10^7 and 1×10^8 particles): 50 fold
- infectivity of the cells to the virus relative to untreated cells (HLF cells; 6 hour pretreatment with 10 μM CI-1, ACN53 3×10^7): approximately 130 times
